{"source": "patent US20070212388A1", "about": "“COMPOSITIONS COMPRISING POROUS ARTICLES AND USES IN IMPLANTABLE MEDICAL DEVICES” (Sahajanand Medical Technologies Pvt. Ltd., priority 2006, published 2007)", "origin": "cited, not measured here", "conditions": "for solubility in water: general statement, no test described"}
{"molecule": "O=c1c(-c2ccc(O)cc2)coc2cc(O[C@@H]3O[C@H](CO)[C@@H](O)[C@H](O)[C@H]3O)cc(O)c12", "note": "[Genistin]", "values": [{"measurement": "water solubility relative to genistein", "setting": "compared with genistein", "value": "greater water solubility than genistein"}]}
{"molecule": "O=c1c(-c2ccc(O)cc2)coc2cc(O)cc(O)c12", "note": "[Genistein, 5,7-dihydroxy-3-(4-hydroxyphenyl)-4H-1-benzopyran-4-one]", "values": [{"measurement": "solubility in water", "value": "practically insoluble in water"}]}
{"molecule": "O=c1c(O)c(-c2ccc(O)c(O)c2)oc2cc(O)cc(O)c12", "note": "[Quercetin, 2-(3,4-dihydroxyphenyl)-3,5,7-trihydroxy-4H-1-benzopyran-4-one]", "values": [{"measurement": "solubility in water", "value": "practically insoluble in water"}]}
